Experimental data published in ChEMBL document CHEMBL1148299 (J Med Chem, 2004).

Assays:
[1] = test system: Rattus norvegicus; assay: Area under curve value 6 hr after po administration in rat; type: ADME, organism-based; design: time < 6 hr, route oral; concentration or dose not given beside the values; conditions: in vivo
[2] = target: C-C chemokine receptor type 5 (Homo sapiens, UniProt P51681); assay: Antagonistic activity against C-C chemokine receptor type 5; type: functional
[3] = target: T1, Muscarinic acetylcholine receptor M1 (Homo sapiens, UniProt P11229); assay: Antagonistic activity against muscarinic M1 receptor; type: functional
T1 sequence (P11229 whole entry): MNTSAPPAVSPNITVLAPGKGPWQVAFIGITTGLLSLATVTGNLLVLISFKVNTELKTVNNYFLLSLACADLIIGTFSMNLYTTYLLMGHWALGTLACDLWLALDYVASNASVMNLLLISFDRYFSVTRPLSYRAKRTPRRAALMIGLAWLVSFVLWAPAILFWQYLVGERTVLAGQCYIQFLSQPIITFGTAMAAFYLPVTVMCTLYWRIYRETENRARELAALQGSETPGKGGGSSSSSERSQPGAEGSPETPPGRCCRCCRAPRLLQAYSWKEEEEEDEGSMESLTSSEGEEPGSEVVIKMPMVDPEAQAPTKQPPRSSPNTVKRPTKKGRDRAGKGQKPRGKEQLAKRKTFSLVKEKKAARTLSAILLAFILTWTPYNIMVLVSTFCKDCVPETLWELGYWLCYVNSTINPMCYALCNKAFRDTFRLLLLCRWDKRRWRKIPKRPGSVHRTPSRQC

[4] = target: T2, Muscarinic acetylcholine receptor M2 (Homo sapiens, UniProt P08172); assay: Antagonistic activity against Muscarinic acetylcholine receptor M2; type: functional
T2 sequence (P08172 whole entry): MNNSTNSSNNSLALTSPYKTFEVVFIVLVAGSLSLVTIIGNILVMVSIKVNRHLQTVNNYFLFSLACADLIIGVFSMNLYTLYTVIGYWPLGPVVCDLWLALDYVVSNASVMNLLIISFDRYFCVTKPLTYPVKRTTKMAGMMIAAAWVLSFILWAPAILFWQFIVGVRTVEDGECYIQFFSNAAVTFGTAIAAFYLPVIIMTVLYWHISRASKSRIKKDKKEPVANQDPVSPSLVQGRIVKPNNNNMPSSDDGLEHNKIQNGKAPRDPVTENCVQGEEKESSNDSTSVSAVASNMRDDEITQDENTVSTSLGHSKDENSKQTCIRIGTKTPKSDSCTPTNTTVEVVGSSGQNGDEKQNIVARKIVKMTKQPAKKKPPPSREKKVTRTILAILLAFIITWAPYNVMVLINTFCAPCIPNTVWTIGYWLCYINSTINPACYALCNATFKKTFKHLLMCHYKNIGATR

[5] = target: Muscarinic acetylcholine receptor M3 (Homo sapiens, UniProt P20309); assay: Antagonistic activity against muscarinic M3 receptor; type: functional
Chain of Muscarinic acetylcholine receptor M3 (P20309 whole entry): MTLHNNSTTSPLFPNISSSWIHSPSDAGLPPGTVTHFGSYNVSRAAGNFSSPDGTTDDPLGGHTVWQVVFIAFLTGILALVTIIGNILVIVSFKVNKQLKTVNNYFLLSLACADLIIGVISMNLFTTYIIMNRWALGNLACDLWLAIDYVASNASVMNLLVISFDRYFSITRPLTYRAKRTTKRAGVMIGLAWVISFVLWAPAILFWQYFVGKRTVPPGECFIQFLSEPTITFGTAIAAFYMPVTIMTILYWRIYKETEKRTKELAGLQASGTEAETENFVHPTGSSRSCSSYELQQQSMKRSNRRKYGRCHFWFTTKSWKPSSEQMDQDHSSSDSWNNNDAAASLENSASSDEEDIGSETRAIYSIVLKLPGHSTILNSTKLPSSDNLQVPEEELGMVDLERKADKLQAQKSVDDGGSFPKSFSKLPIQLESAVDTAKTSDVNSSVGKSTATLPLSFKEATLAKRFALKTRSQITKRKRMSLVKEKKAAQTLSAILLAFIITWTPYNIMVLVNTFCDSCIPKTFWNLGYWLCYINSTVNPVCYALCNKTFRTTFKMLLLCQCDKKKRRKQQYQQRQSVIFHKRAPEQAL

[6] = (§1) Compound was tested for the inhibition of HIV-1 301657 clinical isolate in PBMC cultures; type: functional; conditions: Homo sapiens
[7] = (§2) Compound was tested for the inhibition of HIV-1 ADA-M clinical isolate in PBMC cultures; type: functional; conditions: Homo sapiens
[8] = (§3) Compound was tested for the inhibition of HIV-1 JV1083 clinical isolate in PBMC cultures; type: functional; conditions: Homo sapiens
[9] = (§4) Compound was tested for the inhibition of HIV-1 JrFL clinical isolate in PBMC cultures; type: functional; conditions: Homo sapiens
[10] = (§5) Compound was tested for the inhibition of HIV-1 RU 570 clinical isolate in PBMC cultures; type: functional; conditions: Homo sapiens
[11] = Compound was tested for inhibiting the entry of replication deffective HIV-1 (YU-2) in to […] cells; type: functional, cell-based; conditions: Homo sapiens
[12] = Area under curve value 24 hr after 2 mg/kg iv administration in monkeys; type: ADME, organism-based; design: time < 24 hr, dose 2 mg/kg, route intravenous; conditions: cercopithecidae, in vivo
[13] = Area under curve value 24 hr after 2 mg/kg oral administration in monkeys; type: ADME, organism-based; design: time < 24 hr, dose 2 mg/kg, route oral; conditions: cercopithecidae, in vivo
[14] = Bioavailability in monkey (dose 2 mg/kg); type: ADME, organism-based; conditions: cercopithecidae, in vivo
[15] = Half-life 24 hr after 2 mg/kg iv administration in rats; type: ADME, organism-based; design: dose 2 mg/kg, route intravenous; conditions: rat, in vivo
[16] = Cmax 24 hr after 2 mg/kg oral administration in monkeys; type: ADME, organism-based; design: dose 2 mg/kg, route oral; conditions: cercopithecidae, in vivo
[17] = test system: Rattus norvegicus; assay: Area under curve value 24 hr after 2 mg/kg iv administration in rats; type: ADME, organism-based; design: time < 24 hr, dose 2 mg/kg, route intravenous; conditions: in vivo
[18] = test system: Rattus norvegicus; assay: Area under curve value 24 hr after 2 mg/kg oral administration in rats; type: ADME, organism-based; design: time < 24 hr, dose 2 mg/kg, route oral; conditions: in vivo
[19] = Cmax 24 hr after 2 mg/kg oral administration in rats; type: ADME, organism-based; design: dose 2 mg/kg, route oral; conditions: rat, in vivo
[20] = species on record: Homo sapiens; assay: as §1; type: functional
[21] = species on record: Homo sapiens; assay: as §2; type: functional
[22] = species on record: Homo sapiens; assay: as §3; type: functional
[23] = species on record: Homo sapiens; assay: as §4; type: functional
[24] = species on record: Homo sapiens; assay: as §5; type: functional
[25] = Half-life 24 hr after 2 mg/kg iv administration in monkeys; type: ADME, organism-based; design: dose 2 mg/kg, route intravenous; conditions: cercopithecidae, in vivo
[26] = Bioavailability after administration of 2 mg/kg in rats; type: ADME, organism-based; conditions: rat, in vivo, read-out: Bioavailabiility
[27] = Half-life 24 hr after 10 mg/kg iv administration in rats; type: ADME, organism-based; design: dose 10 mg/kg, route intravenous; conditions: rat, in vivo
[28] = Bioavailability after administration of 10 mg/kg in rats; type: ADME, organism-based; conditions: rat, in vivo, read-out: Bioavailabiility
[29] = test system: Rattus norvegicus; assay: Area under curve value 24 hr after 10 mg/kg iv administration in rats; type: ADME, organism-based; design: time < 24 hr, dose 10 mg/kg, route intravenous; conditions: in vivo
[30] = test system: Rattus norvegicus; assay: Area under curve value 24 hr after 10 mg/kg oral administration in rats; type: ADME, organism-based; design: time < 24 hr, dose 10 mg/kg, route oral; conditions: in vivo
[31] = Cmax 24 hr after 10 mg/kg oral administration in rats; type: ADME, organism-based; design: dose 10 mg/kg, route oral; conditions: rat, in vivo

Chain of C-C chemokine receptor type 5 (P51681 whole entry): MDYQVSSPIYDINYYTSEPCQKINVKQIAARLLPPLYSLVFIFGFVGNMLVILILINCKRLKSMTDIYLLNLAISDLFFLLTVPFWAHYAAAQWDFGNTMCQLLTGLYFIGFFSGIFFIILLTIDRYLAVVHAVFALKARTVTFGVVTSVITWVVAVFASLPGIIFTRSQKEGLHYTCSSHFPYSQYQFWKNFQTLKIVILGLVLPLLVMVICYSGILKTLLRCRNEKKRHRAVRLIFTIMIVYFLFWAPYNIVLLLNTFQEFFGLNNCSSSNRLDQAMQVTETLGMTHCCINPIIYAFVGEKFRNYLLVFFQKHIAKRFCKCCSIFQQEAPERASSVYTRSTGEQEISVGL

AUC 0-6h [1]	Ki [2]	Ki [3]	Ki [4]	IC90 [6]	IC90 [7]	IC90 [8]	IC90 [9]	IC90 [10]	IC50 [11]	SMILES	Ki [5]	other results
7310 ng·h/mL	5.2 nM	3900 nM	4750 nM	16 nM	21 nM	18 nM	19 nM	1000 nM	0.18 nM	CC[C@@H](c1ccc(C(F)(F)F)cc1)N1CCN(C2(C)CCN(C(=O)c3c(C)ncnc3C)CC2)C[C@@H]1C	9090 nM	–
5900 ng·h/mL	1.6 nM	1890 nM	3510 nM	–	–	–	–	–	0.8 nM	Cc1ncnc(C)c1C(=O)N1CCC(C)(N2CCN([C@@H](CC3CC3)c3ccc(C(F)(F)F)cc3)[C@@H](C)C2)CC1	–	–
4600 ng·h/mL	1.1 nM	6070 nM	4760 nM	–	–	–	–	–	0.35 nM	CCC[C@@H](c1ccc(C(F)(F)F)cc1)N1CCN(C2(C)CCN(C(=O)c3c(C)ncnc3C)CC2)C[C@@H]1C	> 5300 nM	AUC 0-24h [12]: 2670 ng·h/mL; AUC 0-24h [13]: 1760 ng·h/mL; bioavailability [14]: 66%; half-life [15]: 15.5 h; Cmax [16]: 240 ng/mL; AUC 0-24h [17]: 4550 ng·h/mL; AUC 0-24h [18]: 3270 ng·h/mL; Cmax [19]: 311 ng/mL; IC90 [20]: 0.09 nM; IC90 [21]: 0.03 nM; IC90 [22]: 0.27 nM; IC90 [23]: 0.01 nM; IC90 [24]: 0.43 nM; half-life [25]: 6.3 h; bioavailability [26]: 72%
–	–	–	–	43 nM	25 nM	10 nM	19 nM	400 nM	–	CCO/N=C(\c1ccc(Br)cc1)C1CCN(C2(C)CCN(C(=O)c3c(C)cc[n+]([O-])c3C)CC2)CC1 [ANCRIVIROC]	–	–
6900 ng·h/mL	–	> 10000 nM	> 10000 nM	1.8 nM	2.8 nM	4.9 nM	3.3 nM	10 nM	0.46 nM	COC[C@@H](c1ccc(C(F)(F)F)cc1)N1CCN(C2(C)CCN(C(=O)c3c(C)ncnc3C)CC2)C[C@@H]1C [VICRIVIROC]	–	AUC 0-24h [12]: 2240 ng·h/mL; AUC 0-24h [13]: 1990 ng·h/mL; bioavailability [14]: 89%; half-life [27]: 8 h; Cmax [16]: 670 ng/mL; bioavailability [28]: 100%; AUC 0-24h [29]: 21000 ng·h/mL; AUC 0-24h [30]: 21000 ng·h/mL; Cmax [31]: 2300 ng/mL; half-life [25]: 3.5 h

SMILES	AUC 0-6h [1]	Ki [2]	Ki [3]	Ki [4]	IC90 [6]	IC90 [7]	IC90 [8]	IC90 [9]	IC90 [10]	IC50 [11]	Ki [5]	other results
Cc1ncnc(C)c1C(=O)N1CCC(C)(N2CCN([C@@H](C)c3ccc(C(F)(F)F)cc3)[C@@H](C)C2)CC1	6210 ng·h/mL	–	575 nM	–	13 nM	19 nM	31 nM	40 nM	> 1000 nM	0.39 nM	716 nM	–
Cc1ncnc(C)c1C(=O)N1CCC(C)(N2CCN([C@@H](Cc3ccccc3)c3ccc(C(F)(F)F)cc3)[C@@H](C)C2)CC1	2030 ng·h/mL	1.4 nM	> 3900 nM	> 5700 nM	0.6 nM	0.04 nM	0.25 nM	0.19 nM	4 nM	0.13 nM	> 5300 nM	–
Cc1ncnc(C)c1C(=O)N1CCC(C)(N2CCN([C@@H](CCC(F)(F)F)c3ccc(C(F)(F)F)cc3)[C@@H](C)C2)CC1	4600 ng·h/mL	–	> 3700 nM	> 6700 nM	–	–	–	–	–	1.44 nM	–	–
